One test addresses T1, TYK2 JH2 (Homo sapiens, UniProt P29597).
T1 construct: purchased DiscoverX (KINOMEscan KdELECT service); host or cells: E. coli BL21-derived (T7 phage display) or HEK-293
Put plainly: TYK2 JH2 binding assay (KINOMEscan KdELECT competitive binding). The following applies: TYK2 JH2 domain, DiscoverX KINOMEscan KdELECT (Assay A); read-out: Biochemical TYK2_DiscoverX_JH2_BND_Kd. A digest of the protocol: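 The assay measures displacement of DNA- or phage-tagged TYK2 pseudokinase domain from an affinity resin; compound binding lowers the amount captured, read by qPCR. Incubation lasts 1 h at room temperature.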

Test [1] concerns JAK1/TYK2 pSTAT5 (Tyr694/699) in THP-1 cell line. Kind of test: IFNa-stimulated JAK1/TYK2 pSTAT5 (Tyr694/699) inhibition cellular assay, AlphaLISA. Type of test: cell-based. The conditions noted are these: Homo sapiens; THP-1 cells, IFNa-stimulated, AlphaLISA (Assay B); read-out: Cellular_THP1_IFNa-pSTATS_TYK2. A digest of the protocol:
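The readout is AlphaLISA signal at 615 nm for phospho-STAT5 in THP-1 lysates after IFNa stimulation (added at 100 ng/mL, 30 min, 37 °C). Cells had compound for 1 h beforehand across eight 6-fold concentrations up to 10000 nM final. IC50s are 4PL fits with bottom and Hill slope constrained.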

The record followed here is patent US20240025906A1 (NEURON23, INC., priority 2022, published 2024).

Structures are written as SMILES. Some results are limits rather than exact numbers.

T1 sequence (P29597 589-875 limits assumed): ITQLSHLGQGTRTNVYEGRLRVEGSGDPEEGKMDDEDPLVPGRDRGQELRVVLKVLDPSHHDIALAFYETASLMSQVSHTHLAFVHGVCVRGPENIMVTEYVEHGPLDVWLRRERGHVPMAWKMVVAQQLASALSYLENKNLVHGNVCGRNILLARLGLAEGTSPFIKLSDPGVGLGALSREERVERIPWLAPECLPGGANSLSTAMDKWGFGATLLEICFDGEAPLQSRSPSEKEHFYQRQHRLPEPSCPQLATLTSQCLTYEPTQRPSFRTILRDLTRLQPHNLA

For the compound `CNc1ncc(-c2nc3cc(/C(C)=N\OC)ccc3o2)c2cc(NC(=O)C3CC3)ncc12` [Example 462, (Z)—N-(5-(5-(1-(methoxyimino)ethyl)benzo[d]oxazol-2-yl)-8-(methylamino)-2,7-naphthyridin-3-yl)cyclopropanecarboxamide], the Kd on TYK2 JH2 is not above 100 nM. Moreover, the IC50 in test [1] was not above 500 nM.
In the same order, the values of `CNc1ncc(-c2nc3cc(/C(C)=N/OC)ccc3o2)c2cc(NC(=O)C3CC3)ncc12` [Example 463, (E)-N-(5-(5-(1-(methoxyimino)ethyl)benzo[d]oxazol-2-yl)-8-(methylamino)-2,7-naphthyridin-3-yl)cyclopropanecarboxamide] are not above 100 nM and not above 500 nM.
In the same order, the values of `CNc1ncc(-c2nc3cc(-c4ncn(C)n4)ccc3o2)c2cc(NC(=O)C3CC3)ncc12` [Example 464, N-(5-(5-(1-methyl-1H-1,2,4-triazol-3-yl)benzo[d]oxazol-2-yl)-8-(methylamino)-2,7-naphthyridin-3-yl)cyclopropanecarboxamide] are not above 100 nM and not above 500 nM.
Turning to `[2H]C([2H])([2H])Nc1ncc(-c2nc3cc(N4CC(OC)C4)ccc3o2)c2cc(NC(=O)[C@H]3C[C@H]3C)ncc12` [Example 469, (1S,2R)—N-(5-(5-(3-methoxyazetidin-1-yl)benzo[d]oxazol-2-yl)-8-((methyl-d3)amino)-2,7-naphthyridin-3-yl)-2-methylcyclopropane-1-carboxamide], the Kd on TYK2 JH2 is not above 100 nM. Moreover, the IC50 in test [1] was not above 500 nM.
On to `CNc1ncc(-c2nc3ccc(OC)cn3n2)c2cc(NC(=O)C3CC3)ncc12` [Example 470, N-(5-(6-methoxy-[1,2,4]triazolo[1,5-a]pyridin-2-yl)-8-(methylamino)-2,7-naphthyridin-3-yl)cyclopropanecarboxamide], for which the Kd at TYK2 JH2 was not above 100 nM. Further, the IC50 in test [1] is not above 500 nM.
The matching figures for `CNc1ncc(-c2nc3ccc(N4CCOCC4)cn3n2)c2cc(NC(=O)C3CC3)ncc12` [Example 471, N-(8-(methylamino)-5-(6-morpholino-[1,2,4]triazolo[1,5-a]pyridin-2-yl)-2,7-naphthyridin-3-yl)cyclopropanecarboxamide]: not above 100 nM and not above 500 nM.
In the same order, the values of `CNc1ncc(-c2nc3ccc(N4CC(F)(F)C4)cn3n2)c2cc(NC(=O)C3CC3)ncc12` [Example 472, N-(5-(6-(3,3-difluoroazetidin-1-yl)-[1,2,4]triazolo[1,5-a]pyridin-2-yl)-8-(methylamino)-2,7-naphthyridin-3-yl)cyclopropanecarboxamide] are not above 100 nM and not above 500 nM.
The matching figures for `CNc1ncc(-c2nc3ccc(N4CC(F)C4)cn3n2)c2cc(NC(=O)C3CC3)ncc12` [Example 473, N-(5-(6-(3-fluoroazetidin-1-yl)-[1,2,4]triazolo[1,5-a]pyridin-2-yl)-8-(methylamino)-2,7-naphthyridin-3-yl)cyclopropanecarboxamide]: not above 100 nM and not above 500 nM.
Take `CNc1ncc(-c2nc3ccc(N4CCC4)cn3n2)c2cc(NC(=O)C3CC3)ncc12` [Example 474, N-(5-(6-(azetidin-1-yl)-[1,2,4]triazolo[1,5-a]pyridin-2-yl)-8-(methylamino)-2,7-naphthyridin-3-yl)cyclopropanecarboxamide]: the Kd on TYK2 JH2 was not above 100 nM. For the same compound, the IC50 in test [1] is not above 500 nM.
Regarding `CNc1ncc(-c2nc3ccc(N4CC(O)C4)cn3n2)c2cc(NC(=O)C3CC3)ncc12` [Example 475, N-(5-(6-(3-hydroxyazetidin-1-yl)-[1,2,4]triazolo[1,5-a]pyridin-2-yl)-8-(methylamino)-2,7-naphthyridin-3-yl)cyclopropanecarboxamide], on TYK2 JH2, the Kd was not above 100 nM. Further, the IC50 in test [1] is not above 500 nM.
In the same order, the values of `CNc1ncc(-c2nc3ccc(N4CC(OC)C4)cn3n2)c2cc(NC(=O)C3CC3)ncc12` [Example 476, N-(5-(6-(3-methoxyazetidin-1-yl)-[1,2,4]triazolo[1,5-a]pyridin-2-yl)-8-(methylamino)-2,7-naphthyridin-3-yl)cyclopropanecarboxamide] are not above 100 nM and not above 500 nM.
For the compound `CNc1ncc(-c2nc3ccc(N4CCO[C@H](C)C4)cn3n2)c2cc(NC(=O)C3CC3)ncc12` [Example 477, (R)-N-(8-(methylamino)-5-(6-(2-methylmorpholino)-[1,2,4]triazolo[1,5-a]pyridin-2-yl)-2,7-naphthyridin-3-yl)cyclopropanecarboxamide], on TYK2 JH2, the Kd was not above 100 nM. Moreover, the IC50 in test [1] was not above 500 nM.
The matching figures for `CNc1ncc(-c2nc3ccc(N4CCO[C@@H](C)C4)cn3n2)c2cc(NC(=O)C3CC3)ncc12` [Example 478, (S)-N-(8-(methylamino)-5-(6-(2-methylmorpholino)-[1,2,4]triazolo[1,5-a]pyridin-2-yl)-2,7-naphthyridin-3-yl)cyclopropanecarboxamide]: not above 100 nM and not above 500 nM.
In the same order, the values of `CNc1ncc(-c2nc3ccc(N4C[C@@H](C)O[C@@H](C)C4)cn3n2)c2cc(NC(=O)C3CC3)ncc12` [Example 479, N-(5-(6-((2R,6S)-2,6-dimethylmorpholino)-[1,2,4]triazolo[1,5-a]pyridin-2-yl)-8-(methylamino)-2,7-naphthyridin-3-yl)cyclopropanecarboxamide] are not above 100 nM and not above 500 nM.
For `CNc1ncc(-c2nc3ccc(N4CCO[C@H](C(F)(F)F)C4)cn3n2)c2cc(NC(=O)C3CC3)ncc12` [Example 481, (S)-N-(8-(methylamino)-5-(6-(2-(trifluoromethyl)morpholino)-[1,2,4]triazolo[1,5-a]pyridin-2-yl)-2,7-naphthyridin-3-yl)cyclopropanecarboxamide], the Kd at TYK2 JH2 is not above 100 nM. Further, in test [1], the IC50 is not above 500 nM.
In the same order, the values of `CNc1ncc(-c2nc3ccc(N4CCO[C@@H](C(F)(F)F)C4)cn3n2)c2cc(NC(=O)C3CC3)ncc12` [Example 482, (R)-N-(8-(methylamino)-5-(6-(2-(trifluoromethyl)morpholino)-[1,2,4]triazolo[1,5-a]pyridin-2-yl)-2,7-naphthyridin-3-yl)cyclopropanecarboxamide] are not above 100 nM and not above 500 nM.
The matching figures for `CNc1ncc(-c2nc3ccc(N4CCC(F)(F)CC4)cn3n2)c2cc(NC(=O)C3CC3)ncc12` [Example 483, N-(5-(6-(4,4-difluoropiperidin-1-yl)-[1,2,4]triazolo[1,5-a]pyridin-2-yl)-8-(methylamino)-2,7-naphthyridin-3-yl)cyclopropanecarboxamide]: not above 100 nM and not above 500 nM.
In the same order, the values of `CNc1ncc(-c2nc3ccc(N4CCC(F)CC4)cn3n2)c2cc(NC(=O)C3CC3)ncc12` [Example 484, N-(5-(6-(4-fluoropiperidin-1-yl)-[1,2,4]triazolo[1,5-a]pyridin-2-yl)-8-(methylamino)-2,7-naphthyridin-3-yl)cyclopropanecarboxamide] are not above 100 nM and not above 500 nM.
Regarding `CNc1ncc(-c2nc3ccc(N4CCCC(F)(F)C4)cn3n2)c2cc(NC(=O)C3CC3)ncc12` [Example 485, N-(5-(6-(3,3-difluoropiperidin-1-yl)-[1,2,4]triazolo[1,5-a]pyridin-2-yl)-8-(methylamino)-2,7-naphthyridin-3-yl)cyclopropanecarboxamide], at TYK2 JH2, the Kd is not above 100 nM. Moreover, the IC50 in test [1] was not above 500 nM.
